Assay [1] concerns lesions induced by compound 48/80. The assay can be described thus: gastric lesion test: lesions induced by compound 48/80. In kind it is in vivo, rats. The settings on record: Rattus norvegicus.
Assay [2] concerns apomorphine-induced emesis. The experiment in a line: apomorphine test in dogs (APO-dog): protection from emesis. The note with it: Canis lupus familiaris, sc, apomorphine 0.31 mg/kg s.c. 1 hour after compound, dose protecting 50% from emesis. In kind it is in vivo, beagle dogs. From the text: 2. The apomorphine test in dogs (APO-dog). The method used is described by P. A. J. Janssen and C. J. E. Niemegeers in Arzneim.-Forsch.

The subject of assay [3] is tryptamine-induced bilateral tonic seizures. The experiment in a line: combined test in rats: tryptamine (TRY)-induced bilateral tonic seizures. The assay is classed as in vivo, adult male Wistar rats. The settings on record: sc, 1.5 h; s.c.; rat; tryptamine 40 mg/kg i.v. at 90 minutes; dose protecting 50% of animals; read-out: ED0 (TRY)-rat.
In assay [4] the test system is apomorphine-induced phenomena: agitation and stereotypic chewing. The assay can be described thus: combined test in rats: apomorphine (APO)-induced agitation and stereotypic chewing. The assay is classed as in vivo, adult male Wistar rats. The settings on record: sc, 0.5 h; s.c.; rat; apomorphine hydrochloride 1.25 mg/kg i.v. 30 minutes after compound; dose protecting 50% of animals.

The subject of assay [5] is lesions induced by compound 48/80. The settings on record: rats, known serotonin antagonists; cited from earlier work.

Take `O=c1[nH]c2ccccc2n1CCCN1CCC(CC(O)c2ccc(F)cc2)CC1` (stereo not shown): the ED50 came out at 0.08 mg/kg in assay [1] and 0.5 mg/kg in assay [2].

`Cc1ccc2c(c1)[nH]c(=O)n2CCN1CCC(CC(=O)c2ccc(F)cc2)CC1` [5-CH3, H, H, (CH2)2, CO, 4-FC6 H4, base]: the ED50 in assay [3] worked out at 0.63 mg/kg; in assay [1] it was 0.63 mg/kg; in assay [2] it was 0.08 mg/kg.

As to `O=C(CC1CCN(CCn2c(=O)[nH]c3cc(Cl)ccc32)CC1)c1ccc(F)cc1` [5-Cl, H, H, (CH2)2, CO, 4-FC6 H4, base], the ED50 worked out at 5 mg/kg in assay [3], 0.63 mg/kg in assay [1], 0.12 mg/kg in assay [2] and 2.5 mg/kg in assay [4].

Turning to `O=C(CC1CCN(CCn2c(=O)[nH]c3cc(F)ccc32)CC1)c1ccc(F)cc1` [5-F, H, H, (CH2)2, CO, 4-FC6 H4, base], the ED50 in assay [3] came out at 0.63 mg/kg; in assay [1], 0.31 mg/kg; in assay [4], 0.16 mg/kg.

As to `O=C(CC1CCN(CCn2c(=O)[nH]c3ccc(Cl)cc32)CC1)c1ccc(F)cc1` [6-Cl, H, H, (CH2)2, CO, 4-FC6 H4, base], the ED50 in assay [3] was found to be 1.25 mg/kg; in assay [1], 0.63 mg/kg; in assay [2], 0.5 mg/kg; in assay [4] it was 2.5 mg/kg.

Consider `CC(=O)n1c(=O)n(CCN2CCC(CC(=O)c3ccc(F)cc3)CC2)c2ccccc21` [H, H, CH3 CO, (CH2)2, CO, 4-FC6 H4, base, 1-acetyl-3-[2-[4-[2-(4-fluorophenyl)-2-oxoethyl]-1-piperidinyl]ethyl]-1,3-dihydro-2H-benzimidazol-2-one], for which the ED50 in assay [3] was determined as 1.25 mg/kg; in assay [1], 0.08 mg/kg; in assay [2], 1 mg/kg; in assay [4] it was 1.25 mg/kg.

With `Cn1c(=O)n(CCN2CCC(CC(=O)c3ccc(F)cc3)CC2)c2ccccc21` [H, H, CH3, (CH2)2, CO, 4-FC6 H4, base], the ED50 in assay [3] was 0.63 mg/kg; in assay [1], 0.31 mg/kg; in assay [2], 0.63 mg/kg; in assay [4] it was 0.63 mg/kg.

For the molecule `Cn1c(=O)n(CCCN2CCC(CC(=O)c3ccc(F)cc3)CC2)c2ccccc21` [H, H, CH3, (CH2)3, CO, 4-FC6 H4, base], the ED50 came out at 1.25 mg/kg in assay [3] and 0.31 mg/kg in assay [1].

For `Cc1ccc(C(=O)CC2CCN(CCn3c(=O)[nH]c4ccccc43)CC2)cc1` [H, H, H, (CH2)2, CO, 4-CH3C6 H4, base], the ED50 in assay [3] was 2.5 mg/kg; in assay [1] it was 0.63 mg/kg; in assay [2] it was 0.5 mg/kg.

In the case of `O=C(CC1CCN(CCn2c(=O)[nH]c3ccccc32)CC1)c1ccc(Cl)cc1` [H, H, H, (CH2)2, CO, 4-ClC6 H4, base], the ED50 in assay [3] came out at 2.5 mg/kg; in assay [1] it was 0.16 mg/kg; in assay [2] it was 0.5 mg/kg; in assay [4] it was 0.63 mg/kg.

Turning to `O=C(CC1CCN(CCn2c(=O)[nH]c3ccccc32)CC1)c1ccc(F)cc1` [H, H, H, (CH2)2, CO, 4-FC6 H4, base, 1-[2-[4-[2-(4-fluorophenyl)-2-oxoethyl]-1-piperidinyl]ethyl]-1,3-dihydro-2H-benzimidazol-2-one], the ED50 in assay [3] worked out at 0.31 mg/kg; in assay [1] it was 0.01 mg/kg; in assay [2], 0.03 mg/kg; in assay [4], 0.31 mg/kg.

For `O=C(CC1CCN(CCn2c(=O)[nH]c3ccccc32)CC1)c1ccccc1` [H, H, H, (CH2)2, CO, C6 H5, base], the ED50 came out at 2.5 mg/kg in assay [3], 0.31 mg/kg in assay [1], 0.25 mg/kg in assay [2] and 0.63 mg/kg in assay [4].

For `O=C(CC1CCN(CCCn2c(=O)[nH]c3ccccc32)CC1)c1ccc(F)cc1` [H, H, H, (CH2)3, CO, 4-FC6 H4, base, 1-[3-[4-[2-(4-fluorophenyl)-2-oxoethyl]-1-piperidinyl]propyl]-1,3-dihydro-2H-benzimidazol-2-one], the ED50 is 1.25 mg/kg in assay [3] and 0.08 mg/kg in assay [1].

Turning to `CC(CCn1c(=O)[nH]c2ccccc21)N1CCC(CC(=O)c2ccc(F)cc2)CC1` (stereo not shown) [H, H, H, [drawing 21], CO, 4-FC6 H4, base, 1-[3-[4-[2-(4-fluorophenyl)-2-oxoethyl]-1-piperidinyl]butyl]-1,3-dihydro-2H-benzimidazol-2-one], the ED50 was determined as 5 mg/kg in assay [3] and 1.25 mg/kg in assay [1].

`CN(C)CCCSc1ccccc1NC(=O)/C=C/c1ccccc1` [cinanserin]: in assay [5], the “prevention of cyanosis of ears and extremities” value is on record as “prevent completely”; the “prevention of lesions in the glandular area of the stomach and abnormal gastric distension” value (“prevention of lesions” below) is on record as “prevent completely”.

`CN1CCC(=C2c3ccccc3C=Cc3ccccc32)CC1` [cyproheptadine]: in assay [5], the “prevention of cyanosis of ears and extremities” value is on record as “prevent completely”; the “prevention of lesions” value is on record as “prevent completely”.

With `CN1C[C@H](CNC(=O)OCc2ccccc2)C[C@@H]2c3cccc4c3c(cn4C)C[C@H]21` [metergoline], in assay [5], the “prevention of cyanosis of ears and extremities” value is “prevent completely”; the “prevention of lesions” value is recorded as “prevent completely”.

Consider `CC[C@@H](CO)NC(=O)[C@@H]1C=C2c3cccc4c3c(cn4C)C[C@H]2N(C)C1` [methysergide], for which, in assay [5], the “prevention of cyanosis of ears and extremities” value is “prevent completely”; the “prevention of lesions” value is reported as “prevent completely”.

For the molecule `CN1CCN2c3ccccc3Cc3ccccc3C2C1` (stereo not shown) [mianserin], in assay [5], the “prevention of cyanosis of ears and extremities” value is on record as “prevent completely”; the “prevention of lesions” value is “prevent completely”.

Take `NC(=O)C1(N2CCCCC2)CCN(CCCC(=O)c2ccc(F)cc2)CC1` [pipamperone]: in assay [5], the “prevention of cyanosis of ears and extremities” value was “prevent completely”; the “prevention of lesions” value is recorded as “prevent completely”.

Take `CN1CCC(=C2c3ccccc3CCc3sccc32)CC1` [pizotifen]: in assay [5], the “prevention of cyanosis of ears and extremities” value is “prevent completely”; the “prevention of lesions” value is recorded as “prevent completely”.

On to `O=C(CCCN1CCC2(CC1)C(=O)NCN2c1ccccc1)c1ccc(F)cc1` [spiperone], for which, in assay [5], the “prevention of cyanosis of ears and extremities” value was “prevent completely”; the “prevention of lesions” value was “prevent completely”.

The values above are taken from patent US4254127A, “1,3-Dihydro-1-[(1-piperidinyl)alkyl]-2H-benzimidazol-2-one derivatives” (Janssen Pharmaceutica, N.V., priority 1980, dated 1981).
